Laboratory results from publication PMC11677527, “Predicting Pharmacokinetics of Active Constituents in Spatholobi caulis by Using Physiologically Based Pharmacokinetic Models” (Pharmaceuticals, 2024).
Like-named read-outs stand apart in the source and are kept apart here.

How the values were obtained:
[1] = Verification pharmacokinetic experiment in rats, SPC 60 g crude drug/kg by gavage, UFLC-MS/MS, DAS 2.0; type: in vivo, rat
Experimental: To validate the accuracy of PBPK models in predicting the pharmacokinetics of SPC constituents at different oral doses, the pharmacokinetic behavior of these four constituents from SPC in rats were analyzed by UFLC-MS/MS. The parameters were calculated using Drug and Statistics Software version 2.0, and then these validated values (Val.) were used to check the accuracy of the Calc. values and evaluated by FE.
The pharmacokinetic fitting results of rats given 60 g crude drug/kg body weight of SPC by gavage were verified by experiments. The verification experiment was conducted according to our previous pharmacokinetic study. In brief, 1.5 mL suspension of SPC was given to rats by oral administration; 300 μL blood samples from orbital venous at 0.083, 0.25, 0.5, 0.75, 1.0, 1.5, 2, 3, 4, 6, 8, and 12 h were collected and pretreated with heparin sodium. After centrifugation, the plasma samples were obtained and further processed for subsequent detection by UFLC-MS/MS; the detailed analysis method is shown in Supplementary Data (Table S1 and Figure S1). The concentration-time curve of each compound was gained, and the pharmacokinetic parameters were calculated using DAS 2.0 software (DAS 2.0, Mathematical Pharmacology Professional Committee of China, Shanghai, China). The results of these four constituents were compared with the PBPK parameters predicted in rats at an oral dose of 60 g crude drug/kg body weight of SPC.
1. The instrument and analytical conditions of UFLC-MS/MS method
4 constituents (1. 3′-methoxydadizein; 2. 8-O-methylretusin; 3. Daidzin; and 4. […]
The internal standard (IS) carbamazepine with a purity of more than 99 % was purchased from Beijing JK-chemical technology Co. Ltd., (Beijing China). Heparin sodium was gained from Tianjin biochemical pharmaceutical Co. Ltd, (Tianjin, China).
Ammonium acetate of HPLC grade, methanol and acetonitrile of LC-MS grade were purchased from Sigma (LOT# BCBK6717V, sigma-aldrich, Co., MO, USA) and Fisher (Fisher Corp., Fair lawn, NJ, USA) respectively. The experimental ultrapure water was prepared by Millipore Milli-Q ultrapure water preparation apparatus (Millipore Sigma, […]
The detailed information of Shimadzu UFLC-MS/MS 8050 liquid mass system equipped with Nexera X2UFLC liquid chromatography system and 8050 triple quadrupole mass spectrometers with an electrospray ionization source were listed in our previous study. The supporting LabSolution workstation was used for data […]
The separation without superposition of analytes in plasma sample was achieved on a Kinetex® C18 chromatographic column (100mm×2.1mm i.d.; 2.6 μm, 100 Å; Phenomenex, Inc., Torrance, CA, USA) assembled with a Phenomenex p/n AJ0-9000 C18 protection column. The mobile phase was consisted of 0.5 mM ammonium acetate in water (A) and ACN (B). The gradient elution program was selected ultimately as […]
95 % B (18.7–22 min). Column and automatic sampler temperature were set as 30 °C and 4 °C respectively. The flow rate of mobile phase was 0.35 mL/min while sample injection volume was 4 μL.
Multiple reaction monitoring (MRM) of positive or negative modes were used as scanning modes for the analytes and IS. Other essential parameters were successively optimized as: Nebulizing gas flow, 3 L/min; Heating gas flow, 10 L/min; Drying gas flow, 10 L/min; Interface temperature, 300 °C; DL temperature, 250 °C; Interface and detector voltage were each set as 3.0 kV and 1.8 kV. The detection parameters such as retention time (RT), dwell time (DT), quadrupole 1 pre-rod bias (Q1), collision energy […]
Table S1 The retention time and ion equivalent parameters of 4 constituents in rat […]
Constituents Retention Precursor Precursor Product time Pre energy Pre time (min) ion species ion ion (msec) Bias (V) Bias

[2] = tested on: Caco-2 cell monolayer; parameters: method as in PMID 36680806, PMID 26501241; details: Caco-2 cell monolayer model; cited from earlier work
[3] = Observed pharmacokinetics in rats after oral SPC (previous study); type: in vivo, rat; details: p.o. SPC
[4] = parameters: method as in PMID 34303214; details: rats, p.o. SPC 30 g crude drug/kg; doses of 1-4: 0.062, 0.11, 0.71, 1.31 mg/kg; cited from earlier work
[5] = compartment model parameters, DAS 2.0, rats p.o. SPC 60 g crude drug/kg, Mean, 5 rats
[6] = statistical moment parameters, DAS 2.0, rats p.o. SPC 60 g crude drug/kg, Mean, 5 rats
[7] = statistical moment parameters, DAS 2.0, rats p.o. SPC 60 g crude drug/kg, Mean, 5 rats, in µg·h²/mL

Compound: COc1cc(-c2coc3cc(O)ccc3c2=O)ccc1O [Constituent 1, 3′-methoxydadizein]
- K10 [1, 5]: 0.474 h⁻¹
- K12 [1, 5]: 0.207 h⁻¹
- K21 [1, 5]: 0.135 h⁻¹
- Ka [1, 5]: 4.239 h⁻¹
- Tlag [1, 5]: 0 h
- V1/F [1, 5]: 12.821 L/kg
- t1/2Ka [1, 5]: 0.185 h
- t1/2α [1, 5]: 1.009 h
- concentration at 0.083 h ([1]; rat, plasma, oral, time 0.083 h, rats p.o. SPC 60 g crude drug/kg, doses of 1-4: 0.124, 0.22, 1.4, 2.62 mg/kg, 5 rats): 2.98 ng/mL
- concentration at 0.25 h ([1]; rat, plasma, oral, time 0.25 h, rats p.o. SPC 60 g crude drug/kg, doses of 1-4: 0.124, 0.22, 1.4, 2.62 mg/kg, 5 rats): 5.52 ng/mL
- concentration at 0.5 h ([1]; rat, plasma, oral, time 0.5 h, rats p.o. SPC 60 g crude drug/kg, doses of 1-4: 0.124, 0.22, 1.4, 2.62 mg/kg, 5 rats): 7.09 ng/mL
- concentration at 0.75 h ([1]; rat, plasma, oral, time 0.75 h, rats p.o. SPC 60 g crude drug/kg, doses of 1-4: 0.124, 0.22, 1.4, 2.62 mg/kg, 5 rats): 6.16 ng/mL
- concentration at 1 h ([1]; rat, plasma, oral, time 1 h, rats p.o. SPC 60 g crude drug/kg, doses of 1-4: 0.124, 0.22, 1.4, 2.62 mg/kg, 5 rats): 5.77 ng/mL
- concentration at 1.5 h ([1]; rat, plasma, oral, time 1.5 h, rats p.o. SPC 60 g crude drug/kg, doses of 1-4: 0.124, 0.22, 1.4, 2.62 mg/kg, 5 rats): 5.11 ng/mL
- concentration at 2 h ([1]; rat, plasma, oral, time 2 h, rats p.o. SPC 60 g crude drug/kg, doses of 1-4: 0.124, 0.22, 1.4, 2.62 mg/kg, 5 rats): 2.89 ng/mL
- concentration at 3 h ([1]; rat, plasma, oral, time 3 h, rats p.o. SPC 60 g crude drug/kg, doses of 1-4: 0.124, 0.22, 1.4, 2.62 mg/kg, 5 rats): 1.75 ng/mL
- concentration at 4 h ([1]; rat, plasma, oral, time 4 h, rats p.o. SPC 60 g crude drug/kg, doses of 1-4: 0.124, 0.22, 1.4, 2.62 mg/kg, 5 rats): 1.46 ng/mL
- concentration at 6 h ([1]; rat, plasma, oral, time 6 h, rats p.o. SPC 60 g crude drug/kg, doses of 1-4: 0.124, 0.22, 1.4, 2.62 mg/kg, 5 rats): 0.553 ng/mL
- concentration at 8 h ([1]; rat, plasma, oral, time 8 h, rats p.o. SPC 60 g crude drug/kg, doses of 1-4: 0.124, 0.22, 1.4, 2.62 mg/kg, 5 rats): 0.582 ng/mL
- concentration at 12 h ([1]; rat, plasma, oral, time 12 h, rats p.o. SPC 60 g crude drug/kg, doses of 1-4: 0.124, 0.22, 1.4, 2.62 mg/kg, 5 rats): 0.197 ng/mL
- AUC(0-t) ([1]; rat, plasma, po, 0.124 mg/kg, compartment model parameters, DAS 2.0, rats p.o. SPC 60 g crude drug/kg, Mean, 5 rats, read-out: AUC(0-t)): 19.1 ng·h/mL
- AUC(0-inf) ([1]; rat, plasma, po, 0.124 mg/kg, compartment model parameters, DAS 2.0, rats p.o. SPC 60 g crude drug/kg, Mean, 5 rats, read-out: AUC(0-∞)): 20.5 ng·h/mL
- CL/F ([1]; rat, plasma, po, 0.124 mg/kg, compartment model parameters, DAS 2.0, rats p.o. SPC 60 g crude drug/kg, Mean, 5 rats, read-out: CL/F (converted)): 101 mL/min/kg
- half-life ([1]; rat, plasma, po, 0.124 mg/kg, compartment model parameters, DAS 2.0, rats p.o. SPC 60 g crude drug/kg, Mean, 5 rats, read-out: t1/2β (converted)): 14.4 h
- AUC(0-t) ([1]; rat, plasma, po, 0.124 mg/kg, statistical moment parameters, DAS 2.0, rats p.o. SPC 60 g crude drug/kg, Mean, 5 rats, read-out: AUC(0-t)): 19.1 ng·h/mL
- AUC(0-inf) ([1]; rat, plasma, po, 0.124 mg/kg, statistical moment parameters, DAS 2.0, rats p.o. SPC 60 g crude drug/kg, Mean, 5 rats, read-out: AUC(0-∞)): 20 ng·h/mL
- CL/F ([1]; rat, plasma, po, 0.124 mg/kg, statistical moment parameters, DAS 2.0, rats p.o. SPC 60 g crude drug/kg, Mean, 5 rats, read-out: CLz/F (converted)): 103 mL/min/kg
- Cmax ([1]; rat, plasma, po, 0.124 mg/kg, statistical moment parameters, DAS 2.0, rats p.o. SPC 60 g crude drug/kg, Mean, 5 rats, read-out: Cmax): 7.18 ng/mL
- MRT last ([1]; rat, plasma, po, 0.124 mg/kg, statistical moment parameters, DAS 2.0, rats p.o. SPC 60 g crude drug/kg, Mean, 5 rats, read-out: MRT(0-t)): 2.77 h
- MRT inf ([1]; rat, plasma, po, 0.124 mg/kg, statistical moment parameters, DAS 2.0, rats p.o. SPC 60 g crude drug/kg, Mean, 5 rats, read-out: MRT(0-∞)): 3.44 h
- Tmax ([1]; rat, plasma, po, 0.124 mg/kg, statistical moment parameters, DAS 2.0, rats p.o. SPC 60 g crude drug/kg, Mean, 5 rats, read-out: Tmax): 0.55 h
- Vd/F ([1]; rat, plasma, po, 0.124 mg/kg, statistical moment parameters, DAS 2.0, rats p.o. SPC 60 g crude drug/kg, Mean, 5 rats, read-out: Vz/F): 25.9 L/kg
- half-life ([1]; rat, plasma, po, 0.124 mg/kg, statistical moment parameters, DAS 2.0, rats p.o. SPC 60 g crude drug/kg, Mean, 5 rats, read-out: t1/2z (converted)): 2.9 h
- AUC(0-t) ([1]; rat, plasma, po, 2.62 mg/kg, rats, p.o. SPC 60 g crude drug/kg, doses of 1-4: 0.124, 0.22, 1.42, 2.62 mg/kg, n = 5, read-out: AUC0→t Val.): 19.1 ng·h/mL
- AUC(0-inf) ([1]; rat, plasma, po, 2.62 mg/kg, rats, p.o. SPC 60 g crude drug/kg, doses of 1-4: 0.124, 0.22, 1.42, 2.62 mg/kg, n = 5, read-out: AUC0→∞ Val.): 20 ng·h/mL
- Cmax ([1]; rat, plasma, po, 2.62 mg/kg, rats, p.o. SPC 60 g crude drug/kg, doses of 1-4: 0.124, 0.22, 1.42, 2.62 mg/kg, n = 5, read-out: Cmax Val.): 7.2 ng/mL
- Tmax ([1]; rat, plasma, po, rats, p.o. SPC 60 g crude drug/kg, doses of 1-4: 0.124, 0.22, 1.42, 2.62 mg/kg, n = 5, read-out: Tmax Val.): 0.55 h
- Cz [1, 6]: 0.202 µg/L
- VRT(0-t) [1, 6]: 7.148 h^2
- VRT(0-∞) [1, 6]: 16.239 h^2
- elimination rate constant [1, 6]: 0.247 h⁻¹
- AUMC(0-t) [1, 7]: 52.953
- AUMC(0-∞) [1, 7]: 68.893
- Papp [2]: 2.2 ×10⁻⁶ cm/s
- time of slight secondary absorption peak [3]: 6 h
- AUC0→t Obs. [4]: 8.4 ng·h/mL
- AUC0→∞ Obs. [4]: 9 ng·h/mL
- Cmax Obs. [4]: 3.9 ng/mL
- Tmax Obs. [4]: 0.42 h
